Source: ChEMBL document CHEMBL4602659, “β,β-Dimethylacrylshikonin Induces Apoptosis in Melanoma Cell Lines by NOXA Upregulation” (J Nat Prod, 2020)
Active and inactive are the calls of the source. No cut-off for these calls is given here.

Legend:
[1] = tested on: MUGMel2; assay: Induction of apoptosis in human MUGMel2 cells assessed as late apoptotic cells at IC50 concentration after 6 hrs by Annexin V/SYTOX Green based flow cytometric analysis (reference value: 5.69%); type: functional
[2] = tested on: WM164; assay: Induction of apoptosis in human WM164 cells assessed as effect on BAD protein expression at IC50 concentration after 24 hrs by Western blot analysis; type: functional, cell-based
[3] = tested on: MUGMel1; assay: Cytotoxicity against human MUGMel1 cells assessed as reduction in cell viability after 48 hrs by EZ4U reagent based spectrophotometric method; type: functional; conditions: MUGMel1, 48 h
[4] = tested on: SBcl2; assay: Induction of apoptosis in human SBcl2 cells assessed as viable cells at IC50 concentration after 24 hrs by Annexin V/SYTOX Green based flow cytometric analysis (reference value: 73.08%); type: functional
[5] = tested on: WM793; assay: Induction of apoptosis in human WM793 cells assessed as early apoptotic cells at IC50 concentration after 6 hrs by Annexin V/SYTOX Green based flow cytometric analysis (reference value: 2.77%); type: functional
[6] = tested on: MUGMel2; assay: Induction of apoptosis in human MUGMel2 cells assessed as effect on BAX mRNA expression at IC50 concentration after 6 to 24 hrs by RT-qPCR analysis; type: functional, cell-based
[7] = tested on: MUGMel1; assay: Cytotoxicity against human MUGMel1 cells assessed as reduction in cell viability after 24 hrs by EZ4U reagent based spectrophotometric method; type: functional; conditions: MUGMel1, 24 h
[8] = tested on: SBcl2; assay: Antitumour activity against human SBcl2 cells xenografted in NU(NCr)-Foxn1 mouse assessed as increase in necrotic cells at 2 ug/g administered for three consecutive days with 1 day interval for four cycle by hematoxylin and eosin staining based microscopic analysis; type: functional
[9] = Toxicity in NU(NCr)-Foxn1 mouse xenografted with WM164 assessed as weight loss at 1 to 4 ug/g administered for three consecutive days with 1 day interval for four cycle; conditions: in vivo
[10] = tested on: SBcl2; assay: Induction of apoptosis in human SBcl2 cells assessed as increase in caspase -3 activity at IC50 concentration after 24 hrs by Alexa Fluor 647 antibody based flow cytometric analysis; type: functional, cell-based
[11] = tested on: WM164; assay: Cytotoxicity against human WM164 cells harboring BRAF V600E mutant assessed as reduction in cell viability after 24 hrs by EZ4U reagent based spectrophotometric method; type: functional; conditions: WM164, 24 h
[12] = tested on: WM793; assay: Induction of apoptosis in human WM793 cells assessed as viable cells at IC50 concentration after 6 hrs by Annexin V/SYTOX Green based flow cytometric analysis (reference value: 96.2%); type: functional
[13] = tested on: MUGMel1; assay: Induction of apoptosis in human MUGMel1 cells assessed as early apoptotic cells at IC50 concentration after 24 hrs by Annexin V/SYTOX Green based flow cytometric analysis (reference value: 3.27%); type: functional
[14] = tested on: SBcl2; assay: Induction of apoptosis in human SBcl2 cells assessed as necrotic cells at IC50 concentration after 24 hrs by Annexin V/SYTOX Green based flow cytometric analysis (reference value: 0.21%); type: functional
[15] = tested on: MUGMel1; assay: Induction of apoptosis in human MUGMel1 cells assessed as up regulation of NOXA at IC50 concentration after 6 to 24 hrs by RT-qPCR analysis relative to control; type: functional
[16] = tested on: WM164; assay: Induction of apoptosis in human WM164 cells assessed as up regulation of PMAIP1 at IC50 concentration after 24 hrs by mRNA sequencing method relative to control; type: functional
[17] = tested on: MUGMel2; assay: Induction of apoptosis in human MUGMel2 cells assessed as early apoptotic cells at IC50 concentration after 24 hrs by Annexin V/SYTOX Green based flow cytometric analysis (reference value: 3.31%); type: functional
[18] = tested on: SBcl2; assay: Induction of apoptosis in human SBcl2 cells assessed as effect on BAD mRNA expression at IC50 concentration after 6 to 24 hrs by RT-qPCR analysis; type: functional, cell-based
[19] = tested on: WM793; assay: Induction of apoptosis in human WM793 cells assessed as late apoptotic cells at IC50 concentration after 24 hrs by Annexin V/SYTOX Green based flow cytometric analysis (reference value: 0.66%); type: functional
[20] = tested on: SBcl2; assay: Antitumour activity against human SBcl2 cells xenografted in NU(NCr)-Foxn1 mouse assessed as increase in fibrosis at 2 ug/g administered for three consecutive days with 1 day interval for four cycle by hematoxylin and eosin staining based microscopic analysis; type: functional, cell-based
[21] = tested on: SBcl2; assay: Induction of apoptosis in human SBcl2 cells treated with scrambled si-RNA assessed as caspase -activity at IC50 concentration after 24 hrs by Western blot analysis; type: functional, cell-based
[22] = tested on: WM793; assay: Cytotoxicity against human WM793 cells harboring BRAF V600E mutant assessed as reduction in cell viability after 48 hrs by EZ4U reagent based spectrophotometric method; type: functional; conditions: WM793, 48 h
[23] = tested on: MUGMel1; assay: Induction of apoptosis in human MUGMel1 cells assessed as late apoptotic cells at IC50 concentration after 24 hrs by Annexin V/SYTOX Green based flow cytometric analysis (reference value: 1.18%); type: functional
[24] = tested on: SBcl2; assay: Cytotoxicity against human SBcl2 cells harboring NRAS Q61I mutant assessed as reduction in cell viability after 72 hrs by EZ4U reagent based spectrophotometric method; type: functional; conditions: SBcl2, 72 h
[25] = tested on: WM793; assay: Induction of apoptosis in human WM793 cells assessed as viable cells at IC50 concentration after 24 hrs by Annexin V/SYTOX Green based flow cytometric analysis (reference value: 96.52%); type: functional
[26] = tested on: WM793; assay: Induction of apoptosis in human WM793 cells assessed as necrotic cells at IC50 concentration after 6 hrs by Annexin V/SYTOX Green based flow cytometric analysis (reference value: 0.32%); type: functional
[27] = tested on: SBcl2; assay: Induction of apoptosis in human SBcl2 cells assessed as viable cells at IC50 concentration after 6 hrs by Annexin V/SYTOX Green based flow cytometric analysis (reference value: 80.68%); type: functional
[28] = tested on: MUGMel2; assay: Induction of apoptosis in human MUGMel2 cells assessed as effect on BAD mRNA expression at IC50 concentration after 6 to 24 hrs by RT-qPCR analysis; type: functional, cell-based
[29] = tested on: WM793; assay: Cytotoxicity against human WM793 cells harboring BRAF V600E mutant assessed as reduction in cell viability after 72 hrs by EZ4U reagent based spectrophotometric method; type: functional; conditions: WM793, 72 h
[30] = tested on: WM164; assay: Induction of apoptosis in human WM164 cells assessed as up regulation of NOXA protein expression at IC50 concentration after 24 hrs by Western blot analysis; type: functional, cell-based
[31] = tested on: MUGMel1; assay: Induction of apoptosis in human MUGMel1 cells assessed as effect on BAD protein expression at IC50 concentration after 24 hrs by Western blot analysis; type: functional, cell-based
[32] = tested on: WM164; assay: Induction of apoptosis in human WM164 cells assessed as viable cells at IC50 concentration after 24 hrs by Annexin V/SYTOX Green based flow cytometric analysis (reference value: 94.62%); type: functional
[33] = tested on: MUGMel2; assay: Induction of apoptosis in human MUGMel2 cells assessed as increase in caspase -3 activity at IC50 concentration after 24 hrs by Alexa Fluor 647 antibody based flow cytometric analysis; type: functional, cell-based
[34] = tested on: MUGMel1; assay: Induction of apoptosis in human MUGMel1 cells assessed as late apoptotic cells at IC50 concentration after 6 hrs by Annexin V/SYTOX Green based flow cytometric analysis (reference value: 1.04%); type: functional

CC(C)=CC[C@@H](OC(=O)C=C(C)C)C1=CC(=O)c2c(O)ccc(O)c2C1=O [DIMETHYLACRYLSHIKONIN]
Activity [1]: 13.53%
Activity [2]: inactive
IC50 [3]: 1100 nM
Activity [4]: 8.43%
Activity [5]: 8.45%
Activity [6]: inactive
IC50 [7]: 1900 nM
Activity [8]: 50%
Activity [9]: Non-Toxic
Activity [10]: Active
IC50 [11]: 3800 nM
Activity [12]: 88.54%
Activity [13]: 40.28%
Activity [14]: 0%
fold change (FC) [15]: 2.4
fold change (FC) [16]: 1.6
Activity [17]: 10.92%
Activity [18]: inactive
Activity [19]: 2.78%
Activity [20]: Active
Activity [21]: inactive
IC50 [22]: 800 nM
Activity [23]: 10.11%
IC50 [24]: 1200 nM
Activity [25]: 83.29%
Activity [26]: 0.3%
Activity [27]: 21.29%
Activity [28]: inactive
IC50 [29]: 700 nM
Activity [30]: Active
Activity [31]: inactive
Activity [32]: 75.03%
Activity [33]: Active
Activity [34]: 2.36%
